Assay results: PubChem BioAssay (NCI)
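These data come from cells grown in 96-well plates and exposed to compound for 48 hours at five concentrations. GI50 is the concentration that inhibits growth by half. TGI: total growth inhibition.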

Tests used:
Experiment in all cases: NCI-60 cell line screen, 48 h
[1] = system: 786-0 renal
[2] = system: A498 renal
[3] = system: A549 NSCLC
[4] = system: ACHN renal
[5] = system: BT-549 breast
[6] = system: CAKI-1 renal
[7] = system: CCRF-CEM leukemia
[8] = system: COLO 205 colon
[9] = system: DU-145 prostate
[10] = system: EKVX NSCLC
[11] = system: HCC-2998 colon
[12] = system: HCT-116 colon
[13] = system: HCT-15 colon
[14] = system: HL-60(TB) leukemia
[15] = system: HOP-62 NSCLC
[16] = system: HOP-92 NSCLC
[17] = system: HS 578T breast
[18] = system: HT29 colon
[19] = system: IGROV1 ovarian
[20] = system: K-562 leukemia
[21] = system: KM12 colon
[22] = system: LOX IMVI melanoma
[23] = system: M14 melanoma
[24] = system: MALME-3M melanoma
[25] = system: MCF7 breast
[26] = system: MDA-MB-231 breast
[27] = system: MDA-MB-435
[28] = system: MDA-MB-468 breast
[29] = system: MOLT-4 leukemia
[30] = system: NCI-H226 lung
[31] = system: NCI-H23 lung
[32] = system: NCI-H460 lung
[33] = system: NCI-H522 lung
[34] = system: OVCAR-3 ovarian
[35] = system: OVCAR-4 ovarian
[36] = system: OVCAR-5 ovarian
[37] = system: OVCAR-8 ovarian
[38] = system: PC-3 prostate
[39] = system: RPMI-8226 leukemia
[40] = system: RXF 393 renal
[41] = system: SF-268 CNS
[42] = system: SF-295 CNS
[43] = system: SF-539 CNS
[44] = system: SK-MEL-28 melanoma
[45] = system: SK-MEL-5 melanoma
[46] = system: SK-OV-3 ovarian
[47] = system: SN12C renal
[48] = system: SNB-19 CNS
[49] = system: SNB-75 CNS
[50] = system: SR leukemia
[51] = system: SW-620 colon
[52] = system: T-47D breast
[53] = system: TK-10 renal
[54] = system: U251 CNS
[55] = system: UACC-257 melanoma
[56] = system: UACC-62 melanoma
[57] = system: UO-31 renal

SMILES: Cc1cc(N=C(N)c2ccccc2)ccc1OCCCCCCCCn1ccnc1
- GI50 [1]: 0.483 µM
- TGI [1]: 4.58 µM
- GI50 [2]: 8.12 µM
- TGI [2]: 23.7 µM
- GI50 [3]: 0.803 µM
- TGI [3]: 14.9 µM
- GI50 [4]: 0.547 µM
- TGI [4]: 13.2 µM
- GI50 [5]: 1.45 µM
- TGI [5]: 11.1 µM
- GI50 [6]: 0.58 µM
- TGI [6]: 12 µM
- GI50 [7]: 0.371 µM
- TGI [7]: 12.4 µM
- GI50 [8]: 0.354 µM
- TGI [8]: 1.45 µM
- GI50 [9]: 0.407 µM
- TGI [9]: 14.3 µM
- GI50 [10]: 0.422 µM
- TGI [10]: 13.3 µM
- GI50 [11]: 0.224 µM
- TGI [11]: 1.76 µM
- GI50 [12]: 0.375 µM
- TGI [12]: 11.4 µM
- GI50 [13]: 0.361 µM
- TGI [13]: 11.5 µM
- GI50 [14]: 0.211 µM
- TGI [14]: 0.659 µM
- GI50 [15]: 0.441 µM
- TGI [15]: 15.2 µM
- GI50 [16]: 0.589 µM
- TGI [16]: 7.87 µM
- GI50 [17]: 0.991 µM
- TGI [17]: 12.1 µM
- GI50 [18]: 0.239 µM
- TGI [18]: 0.667 µM
- GI50 [19]: 0.634 µM
- TGI [19]: 12.4 µM
- GI50 [20]: 0.283 µM
- TGI [20]: 11.2 µM
- GI50 [21]: 0.444 µM
- TGI [21]: 13.6 µM
- GI50 [22]: 0.327 µM
- TGI [22]: 1.86 µM
- GI50 [23]: 0.323 µM
- TGI [23]: 1.31 µM
- GI50 [24]: 0.323 µM
- TGI [24]: 1.59 µM
- GI50 [25]: 0.312 µM
- TGI [25]: 10.7 µM
- GI50 [26]: 0.54 µM
- TGI [26]: 4.61 µM
- GI50 [27]: 0.225 µM
- TGI [27]: 0.573 µM
- GI50 [28]: 0.155 µM
- TGI [28]: 0.694 µM
- GI50 [29]: 0.565 µM
- TGI [29]: 17.7 µM
- GI50 [30]: 0.332 µM
- TGI [30]: 1.79 µM
- GI50 [31]: 0.262 µM
- TGI [31]: 4.06 µM
- GI50 [32]: 0.388 µM
- TGI [32]: 11.6 µM
- GI50 [33]: 0.245 µM
- TGI [33]: 0.986 µM
- GI50 [34]: 0.366 µM
- TGI [34]: 13.1 µM
- GI50 [35]: 2.89 µM
- TGI [35]: 35.3 µM
- GI50 [36]: 0.456 µM
- TGI [36]: 11.5 µM
- GI50 [37]: 0.471 µM
- TGI [37]: 2.95 µM
- GI50 [38]: 0.46 µM
- TGI [38]: 16.5 µM
- GI50 [39]: 0.352 µM
- TGI [39]: 1.63 µM
- GI50 [40]: 0.231 µM
- TGI [40]: 1.57 µM
- GI50 [41]: 1.22 µM
- TGI [41]: 16.6 µM
- GI50 [42]: 0.259 µM
- TGI [42]: 0.929 µM
- GI50 [43]: 0.227 µM
- TGI [43]: 0.567 µM
- GI50 [44]: 1.01 µM
- TGI [44]: 8.68 µM
- GI50 [45]: 0.325 µM
- TGI [45]: 1.17 µM
- GI50 [46]: 0.512 µM
- TGI [46]: 14.9 µM
- GI50 [47]: 0.44 µM
- TGI [47]: 7.87 µM
- GI50 [48]: 0.753 µM
- TGI [48]: 17.7 µM
- GI50 [49]: 0.418 µM
- TGI [49]: 7.3 µM
- GI50 [50]: 0.327 µM
- TGI [50]: 19.4 µM
- GI50 [51]: 0.463 µM
- TGI [51]: 20.9 µM
- GI50 [52]: 0.594 µM
- TGI [52]: 21.5 µM
- GI50 [53]: 1.46 µM
- TGI [53]: 17.2 µM
- GI50 [54]: 0.355 µM
- TGI [54]: 3.1 µM
- GI50 [55]: 1.47 µM
- TGI [55]: 13 µM
- GI50 [56]: 0.494 µM
- TGI [56]: 7.58 µM
- GI50 [57]: 0.68 µM
- TGI [57]: 8.27 µM

SMILES: O=C(/C=C/c1cccs1)Nc1ncc(Cc2ccccc2F)s1
- GI50 [28]: 0.364 µM
- TGI [28]: > 100 µM

SMILES: COc1cc([N+](=O)[O-])c2ncccc2c1O
- GI50 [28]: 35.6 µM
- TGI [28]: > 100 µM

SMILES: CCNC1=CC(=O)c2ncccc2C1=O
- GI50 [28]: 2.11 µM
- TGI [28]: 7.55 µM

SMILES: Fc1ccc(-c2c(-c3ccncc3)n(CCN3CCOCC3)c3cccnc23)cc1
- GI50 [28]: > 25 µM
- TGI [28]: > 25 µM

SMILES: CCOc1ccc(N2C(N)=NC(N)=NC2(C)C)cc1
- GI50 [28]: 20.8 µM
- TGI [28]: > 100 µM

SMILES: CN1C=CN(Cc2ccc(-c3ccccn3)nc2)[CH-]1.CN1C=CN(Cc2ccc(-c3ccccn3)nc2)[CH-]1.[Au+3]
- GI50 [28]: 0.337 µM
- TGI [28]: 2.53 µM

SMILES: COCCn1cc(-c2csc(-c3c[nH]c4ccc(F)cc34)n2)c2cccnc21
- GI50 [28]: 2.44 µM
- TGI [28]: 8.51 µM

SMILES: CCN(CC)c1ccc(/C=N\NC(=O)c2cccc(Nc3ccnc(C(F)(F)F)c3)c2)c(O)c1
- GI50 [28]: 0.239 µM
- TGI [28]: 3.51 µM

SMILES: O=C(N/N=C\c1cc(Cl)ccc1O)N/N=C/c1cc(Cl)ccc1O
- GI50 [28]: 2.58 µM
- TGI [28]: > 100 µM

SMILES: COc1ccccc1OCC(O)CO (configuration not stated)
- GI50 [28]: > 100 µM
- TGI [28]: > 100 µM

SMILES: N#CC(C#N)=C/C=C/c1cccc([N+](=O)[O-])c1
- GI50 [28]: 0.767 µM
- TGI [28]: 2.28 µM

SMILES: NC(=O)c1ccc(-c2c3ccccc3cc3c2ccc2ccccc23)cc1
- GI50 [28]: 1.34 µM
- TGI [28]: 6.97 µM

SMILES: COc1cc(Nc2ncc(-c3ccccc3)o2)cc(OC)c1OC
- GI50 [28]: 0.0744 µM
- TGI [28]: 1.1 µM

SMILES: Cc1cc(C#Cc2ccccc2)ccc1-n1c(/C=C/c2ccc(O)cc2)nc2ccccc2c1=O
- GI50 [28]: 3.78 µM
- TGI [28]: > 100 µM

SMILES: Brc1ccc2[nH]cc(-c3nc(-c4c[nH]c5ccncc45)cs3)c2c1
- GI50 [28]: 1.77 µM
- TGI [28]: 3.45 µM

SMILES: CC(C)=CCC[C@](C)(O)[C@H]1CC[C@]2(C)[C@@H]1CC[C@@H]1[C@@]3(C)CC[C@H](OC(=O)CCC(=O)O)C(C)(C)[C@@H]3CC[C@]12C
- GI50 [28]: 22.3 µM
- TGI [28]: 96.1 µM

SMILES: O=c1c2c(=NCCCN3CCCC3)cc3c(=O)n(CCCN4CCCC4)c(=O)c4c(NCCCN5CCCC5)cc(c(O)n1CCCN1CCCC1)c2c4-3
- GI50 [28]: 1.74 µM
- TGI [28]: 4.68 µM

SMILES: O=C(Nc1ccc(-c2nc3ccc(NC(=O)c4ccc(Cl)cc4)cc3[nH]2)cc1)c1ccc(Cl)cc1
- GI50 [28]: 2.58 µM
- TGI [28]: 8.45 µM

SMILES: C=C(C)[C@@H]1CC[C@]2(C#N)CC[C@]3(C)[C@H](CC[C@@H]4[C@@]5(C)CCCNC(C)(C)[C@@H]5CC[C@]43C)[C@@H]12
- GI50 [28]: 1.75 µM
- TGI [28]: 3.21 µM

SMILES: CCc1ccc(/C=C2/SC(=S)NC2=O)cc1
- GI50 [28]: 20.3 µM
- TGI [28]: 69.4 µM

SMILES: Cn1cc(/C=C2\C(=O)Nc3cccnc32)c2ccccc21
- GI50 [28]: 12 µM
- TGI [28]: > 25 µM

SMILES: O=C(O)CCN1C(=O)/C(=C/C(Cl)=C/c2ccccc2)SC1=S
- GI50 [28]: 1.2 µM
- TGI [28]: 2.98 µM

SMILES: Cc1ccc(Nc2ccnc(Nc3cccc(C(N)=O)c3)n2)cc1O
- GI50 [28]: 2.62 µM
- TGI [28]: 9.56 µM

SMILES: O=C(O)c1c(Cl)c(Cl)c(Cl)c(Cl)c1-c1c2cc(I)c(=O)c(I)c-2oc2c(I)c(O)c(I)cc12
- GI50 [28]: 36.9 µM
- TGI [28]: 76.2 µM

SMILES: COc1cc(C(=O)c2c(-c3ccccc3)oc3ccccc23)cc(OC)c1O
- GI50 [28]: 0.362 µM
- TGI [28]: 3.48 µM

SMILES: Fc1cc(Nc2ccc3c(OCCCN4CCOCC4)cccc3n2)ccc1Cl
- GI50 [28]: 2.08 µM
- TGI [28]: 4.43 µM

SMILES: NC(=NC1C2CC3CC(C2)CC1C3)Nc1ccc(I)cc1 (configuration not stated)
- GI50 [28]: 1.96 µM
- TGI [28]: 4.68 µM

SMILES: CCn1cc(C2NC(=O)c3cc(F)ccc3N2)c2cccc(Cl)c21 (configuration not stated)
- GI50 [28]: 0.292 µM
- TGI [28]: 6.13 µM

SMILES: COc1cc(SC)ccc1C(=O)N1CCCC(C)C1 (configuration not stated)
- GI50 [28]: 26.1 µM
- TGI [28]: > 100 µM
